Assays:
A1 (h) = A1 (h) (Homo sapiens, UniProt P30542); assay: competitive radioligand binding assay, A1 (h) (antagonist radioligand)
Cl− channel (GABA-gated) = assay: competitive radioligand binding assay, Cl− channel (GABA-gated) (antagonist radioligand); details: 10 μM
[1] = biological target: norepinephrine transporter (h) (Homo sapiens, UniProt P23975); assay: competitive radioligand binding assay, norepinephrine transporter (h) (antagonist radioligand)
A3 (h) = A3 (h) (Homo sapiens, UniProt P0DMS8); assay: competitive radioligand binding assay, A3 (h) (agonist radioligand)
A3 (h), sequence (P0DMS8 whole entry): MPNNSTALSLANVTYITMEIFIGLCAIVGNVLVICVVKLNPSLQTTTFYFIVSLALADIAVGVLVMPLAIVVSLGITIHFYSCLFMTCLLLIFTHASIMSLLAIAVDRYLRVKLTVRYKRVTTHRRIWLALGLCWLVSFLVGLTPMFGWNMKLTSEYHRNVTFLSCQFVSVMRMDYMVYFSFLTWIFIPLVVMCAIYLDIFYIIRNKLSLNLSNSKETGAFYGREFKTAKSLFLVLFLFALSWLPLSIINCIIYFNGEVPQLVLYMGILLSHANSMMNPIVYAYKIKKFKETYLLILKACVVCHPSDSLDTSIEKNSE

[2] = tested on: Ca2+ channel (L, diltiazem site) (benzothiazepines); assay: competitive radioligand binding assay, Ca2+ channel (L, diltiazem site) (benzothiazepines) (antagonist radioligand); details: 10 μM
CysLT1 (LTD4) (h) = CysLT1 (LTD4) (h) (Homo sapiens, UniProt Q9Y271); assay: competitive radioligand binding assay, CysLT1 (LTD4) (h) (agonist radioligand)
CysLT1 (LTD4) (h), sequence (Q9Y271 whole entry): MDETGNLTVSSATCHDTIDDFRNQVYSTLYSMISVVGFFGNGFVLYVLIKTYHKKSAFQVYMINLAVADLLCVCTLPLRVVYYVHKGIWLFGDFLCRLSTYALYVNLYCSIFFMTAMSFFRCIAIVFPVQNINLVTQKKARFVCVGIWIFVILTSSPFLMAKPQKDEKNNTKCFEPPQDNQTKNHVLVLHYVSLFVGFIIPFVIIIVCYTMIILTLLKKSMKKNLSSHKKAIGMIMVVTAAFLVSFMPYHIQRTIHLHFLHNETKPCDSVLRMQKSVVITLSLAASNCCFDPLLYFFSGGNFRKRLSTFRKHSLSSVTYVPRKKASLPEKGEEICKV

TRH1 (h) = TRH1 (h) (Homo sapiens, UniProt P34981); assay: competitive radioligand binding assay, TRH1 (h) (agonist radioligand)
TRH1 (h), sequence (P34981 whole entry): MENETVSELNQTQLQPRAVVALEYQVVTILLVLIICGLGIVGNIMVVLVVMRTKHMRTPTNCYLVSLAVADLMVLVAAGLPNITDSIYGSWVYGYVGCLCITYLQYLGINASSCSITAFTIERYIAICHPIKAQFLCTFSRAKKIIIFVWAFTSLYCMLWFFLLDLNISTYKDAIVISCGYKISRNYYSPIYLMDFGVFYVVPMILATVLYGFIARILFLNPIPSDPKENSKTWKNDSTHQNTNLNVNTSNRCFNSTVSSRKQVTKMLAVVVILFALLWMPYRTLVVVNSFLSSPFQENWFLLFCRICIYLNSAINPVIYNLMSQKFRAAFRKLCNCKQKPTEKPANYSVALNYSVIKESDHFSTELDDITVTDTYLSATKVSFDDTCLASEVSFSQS

NMDA = assay: competitive radioligand binding assay, NMDA (antagonist radioligand); details: 10 μM
MT1 (ML1A) (h) = MT1 (ML1A) (h) (Homo sapiens, UniProt P48039); assay: competitive radioligand binding assay, MT1 (ML1A) (h) (agonist radioligand)
MT1 (ML1A) (h), sequence (P48039 whole entry): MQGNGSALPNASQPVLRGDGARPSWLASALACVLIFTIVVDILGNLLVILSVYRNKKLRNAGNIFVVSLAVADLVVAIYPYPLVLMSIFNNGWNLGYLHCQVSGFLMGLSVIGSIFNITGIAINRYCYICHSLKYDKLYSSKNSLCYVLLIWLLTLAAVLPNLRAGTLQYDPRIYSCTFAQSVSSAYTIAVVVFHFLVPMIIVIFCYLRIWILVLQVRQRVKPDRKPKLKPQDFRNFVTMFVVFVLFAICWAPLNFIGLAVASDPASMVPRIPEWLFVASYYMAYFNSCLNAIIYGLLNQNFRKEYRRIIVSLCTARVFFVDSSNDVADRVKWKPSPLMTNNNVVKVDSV

CRF1 (h) = CRF1 (h) (Homo sapiens, UniProt P34998); assay: competitive radioligand binding assay, CRF1 (h) (agonist radioligand)
NK3 (h) = NK3 (h) (Homo sapiens, UniProt P29371); assay: competitive radioligand binding assay, NK3 (h) (antagonist radioligand)
CCK2 (CCKB) (h) = CCK2 (CCKB) (h) (Homo sapiens, UniProt P32239); assay: competitive radioligand binding assay, CCK2 (CCKB) (h) (agonist radioligand)
CCK2 (CCKB) (h), sequence (P32239 whole entry): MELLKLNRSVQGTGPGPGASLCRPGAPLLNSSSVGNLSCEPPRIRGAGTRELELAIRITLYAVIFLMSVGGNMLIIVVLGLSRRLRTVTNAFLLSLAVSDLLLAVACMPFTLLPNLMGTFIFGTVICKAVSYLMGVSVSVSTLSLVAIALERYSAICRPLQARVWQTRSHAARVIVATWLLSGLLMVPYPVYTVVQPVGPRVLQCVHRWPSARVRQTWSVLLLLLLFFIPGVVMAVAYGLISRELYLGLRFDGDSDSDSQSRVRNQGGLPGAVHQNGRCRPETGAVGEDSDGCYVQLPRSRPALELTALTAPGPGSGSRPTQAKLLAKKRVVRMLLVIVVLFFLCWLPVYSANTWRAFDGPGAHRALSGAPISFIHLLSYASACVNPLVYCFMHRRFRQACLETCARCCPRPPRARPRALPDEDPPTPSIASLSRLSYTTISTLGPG

ETB (h) = ETB (h) (Homo sapiens, UniProt P24530); assay: competitive radioligand binding assay, ETB (h) (agonist radioligand)
ETB (h), sequence (P24530 27-442): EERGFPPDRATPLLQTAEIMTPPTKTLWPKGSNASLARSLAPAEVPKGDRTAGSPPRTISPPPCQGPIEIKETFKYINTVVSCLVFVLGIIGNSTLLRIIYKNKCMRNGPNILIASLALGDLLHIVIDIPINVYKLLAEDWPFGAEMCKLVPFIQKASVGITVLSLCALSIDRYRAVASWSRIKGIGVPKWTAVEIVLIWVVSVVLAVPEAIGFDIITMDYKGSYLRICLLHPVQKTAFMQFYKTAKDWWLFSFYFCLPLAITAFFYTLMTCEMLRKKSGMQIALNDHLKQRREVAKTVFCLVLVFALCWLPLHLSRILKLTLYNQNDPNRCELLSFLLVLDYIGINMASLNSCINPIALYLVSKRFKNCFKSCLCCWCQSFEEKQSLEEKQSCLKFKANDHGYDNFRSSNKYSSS

I2 = assay: competitive radioligand binding assay, I2 (antagonist radioligand); details: 10 μM
KATP channel = assay: competitive radioligand binding assay, KATP channel (antagonist radioligand); details: 10 μM
[3] = Distribution in plasma, brain and prostate after single IV administration in rats; type: in vivo; details: single IV 2 mg/kg
EP2 (h) = EP2 (h) (Homo sapiens, UniProt P43116); assay: competitive radioligand binding assay, EP2 (h) (agonist radioligand)
EP2 (h), sequence (P43116 whole entry): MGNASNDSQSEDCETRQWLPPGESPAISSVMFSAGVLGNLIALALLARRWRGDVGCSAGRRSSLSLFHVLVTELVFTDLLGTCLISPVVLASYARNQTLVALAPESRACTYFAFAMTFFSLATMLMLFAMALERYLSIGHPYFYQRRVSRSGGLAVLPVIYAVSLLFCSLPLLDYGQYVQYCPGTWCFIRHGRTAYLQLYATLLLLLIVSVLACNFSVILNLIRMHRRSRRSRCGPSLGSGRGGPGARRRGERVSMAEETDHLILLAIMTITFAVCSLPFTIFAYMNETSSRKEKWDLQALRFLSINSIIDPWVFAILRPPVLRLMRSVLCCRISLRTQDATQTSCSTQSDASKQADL

PPARγ (h) = PPARγ (h) (Homo sapiens, UniProt P37231); assay: competitive radioligand binding assay, PPARγ (h) (agonist radioligand)
PPARγ (h), sequence (P37231 whole entry): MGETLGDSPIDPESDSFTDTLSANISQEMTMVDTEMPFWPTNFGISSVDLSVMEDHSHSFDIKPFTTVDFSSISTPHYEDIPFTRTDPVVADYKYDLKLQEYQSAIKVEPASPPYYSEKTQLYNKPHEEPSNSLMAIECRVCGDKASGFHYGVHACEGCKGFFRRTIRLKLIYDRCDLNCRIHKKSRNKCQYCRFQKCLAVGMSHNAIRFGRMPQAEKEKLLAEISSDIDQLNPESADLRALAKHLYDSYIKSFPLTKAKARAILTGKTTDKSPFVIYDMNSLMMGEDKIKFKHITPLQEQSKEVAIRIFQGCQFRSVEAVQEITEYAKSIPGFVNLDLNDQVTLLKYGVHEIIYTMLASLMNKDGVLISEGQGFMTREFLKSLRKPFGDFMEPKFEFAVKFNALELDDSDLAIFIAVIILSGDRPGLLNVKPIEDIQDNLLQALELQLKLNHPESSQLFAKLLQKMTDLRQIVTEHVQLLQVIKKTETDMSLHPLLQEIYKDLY

PCP = assay: competitive radioligand binding assay, PCP (antagonist radioligand); details: 10 μM
a2 (non-selective) = assay: competitive radioligand binding assay, a2 (non-selective) (antagonist radioligand); details: 10 μM
P2Y = assay: competitive radioligand binding assay, P2Y (agonist radioligand); details: 10 μM
P2X = assay: competitive radioligand binding assay, P2X (agonist radioligand); details: 10 μM
AR (h) = assay: competitive radioligand binding assay, AR (h) (agonist radioligand); parameters: species or system human; details: 10 μM
kainate = assay: competitive radioligand binding assay, kainate (agonist radioligand); details: 10 μM
H2 (h) = H2 (h) (Homo sapiens, UniProt P25021); assay: competitive radioligand binding assay, H2 (h) (antagonist radioligand)
H2 (h), sequence (P25021 whole entry): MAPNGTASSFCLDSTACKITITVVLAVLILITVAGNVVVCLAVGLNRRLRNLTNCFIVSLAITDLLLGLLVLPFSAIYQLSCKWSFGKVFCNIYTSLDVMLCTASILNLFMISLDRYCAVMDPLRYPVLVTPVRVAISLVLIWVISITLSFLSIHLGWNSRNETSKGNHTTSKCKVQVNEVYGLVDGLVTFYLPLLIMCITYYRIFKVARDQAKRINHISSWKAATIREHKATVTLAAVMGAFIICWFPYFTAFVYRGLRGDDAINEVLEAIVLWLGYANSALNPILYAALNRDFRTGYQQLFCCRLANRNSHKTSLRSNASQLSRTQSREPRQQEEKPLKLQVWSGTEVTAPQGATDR

[4] = biological target: choline transporter (CHT1) (h) (Homo sapiens, UniProt Q9GZV3); assay: competitive radioligand binding assay, choline transporter (CHT1) (h) (antagonist radioligand)
BLT1 (LTB4) (h) = BLT1 (LTB4) (h) (Homo sapiens, UniProt Q15722); assay: competitive radioligand binding assay, BLT1 (LTB4) (h) (agonist radioligand)
BLT1 (LTB4) (h), sequence (Q15722 whole entry): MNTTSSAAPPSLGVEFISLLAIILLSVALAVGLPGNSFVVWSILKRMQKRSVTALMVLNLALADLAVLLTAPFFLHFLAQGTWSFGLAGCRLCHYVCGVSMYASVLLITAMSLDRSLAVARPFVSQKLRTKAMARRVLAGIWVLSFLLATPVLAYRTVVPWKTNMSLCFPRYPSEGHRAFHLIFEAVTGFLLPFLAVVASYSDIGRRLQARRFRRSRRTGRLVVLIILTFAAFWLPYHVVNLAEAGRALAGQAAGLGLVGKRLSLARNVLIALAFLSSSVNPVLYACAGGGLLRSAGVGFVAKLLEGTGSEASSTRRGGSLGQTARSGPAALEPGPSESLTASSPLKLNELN

α1 (non-selective) = assay: competitive radioligand binding assay, α1 (non-selective (antagonist radioligand)); details: 10 μM
BZD (central) = assay: competitive radioligand binding assay, BZD (central) (agonist radioligand); details: 10 μM
B2 (h) = B2 (h) (Homo sapiens, UniProt P30411); assay: competitive radioligand binding assay, B2 (h) (agonist radioligand)

A1 (h), sequence (P30542 whole entry): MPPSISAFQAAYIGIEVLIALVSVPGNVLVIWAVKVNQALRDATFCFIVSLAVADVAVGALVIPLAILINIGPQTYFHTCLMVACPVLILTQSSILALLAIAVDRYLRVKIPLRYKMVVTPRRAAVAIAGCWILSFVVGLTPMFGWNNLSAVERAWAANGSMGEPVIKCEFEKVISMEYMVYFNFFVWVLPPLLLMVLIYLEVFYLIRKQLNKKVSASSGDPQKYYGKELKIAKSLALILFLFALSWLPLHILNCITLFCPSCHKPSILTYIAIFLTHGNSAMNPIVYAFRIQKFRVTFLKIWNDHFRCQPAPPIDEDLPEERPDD
norepinephrine transporter (h), sequence (P23975 whole entry): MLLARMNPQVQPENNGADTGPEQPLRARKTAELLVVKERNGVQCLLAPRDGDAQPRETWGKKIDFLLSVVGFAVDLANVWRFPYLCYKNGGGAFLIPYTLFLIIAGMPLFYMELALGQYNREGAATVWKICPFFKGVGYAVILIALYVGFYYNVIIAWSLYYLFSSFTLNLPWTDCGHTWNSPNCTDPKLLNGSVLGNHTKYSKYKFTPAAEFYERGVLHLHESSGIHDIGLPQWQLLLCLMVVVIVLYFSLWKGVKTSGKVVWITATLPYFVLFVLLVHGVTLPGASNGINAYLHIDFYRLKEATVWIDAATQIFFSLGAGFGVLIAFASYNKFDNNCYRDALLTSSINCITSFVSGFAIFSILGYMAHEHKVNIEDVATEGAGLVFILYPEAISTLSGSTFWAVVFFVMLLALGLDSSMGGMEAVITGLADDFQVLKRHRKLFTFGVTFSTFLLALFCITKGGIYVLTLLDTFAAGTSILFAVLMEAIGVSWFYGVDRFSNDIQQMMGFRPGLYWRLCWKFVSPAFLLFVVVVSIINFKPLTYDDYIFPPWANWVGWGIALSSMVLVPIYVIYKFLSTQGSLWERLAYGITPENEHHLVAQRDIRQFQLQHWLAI

SMILES: CNC(=O)c1ccc(N2C(=S)N(c3ccc(C#N)c(C(F)(F)F)c3)C(=O)[C@]23CCOC3)cc1F [(R)-1, 4-[(R)-3-(4-cyano-3-trifluoromethyl-phenyl)-4-oxo-2-thioxo-7-oxa-1,3-diaza-spiro[4.4]non-1-yl]-2-fluoro-N-methyl-benzamide]
- inhibition at 10 µM (A1 (h)): -11.8%
- % Inhibition (Cl− channel (GABA-gated)): 42.4%
- inhibition at 10 µM [1]: -1.1%
- inhibition at 10 µM (A3 (h)): -4.9%
- % Inhibition [2]: −23.6%
- inhibition at 10 µM (CysLT1 (LTD4) (h)): -13.9%
- inhibition at 10 µM (TRH1 (h)): 3.4%
- % Inhibition (NMDA): 2.0%
- inhibition at 10 µM (MT1 (ML1A) (h)): -6.2%
- inhibition at 10 µM (CRF1 (h)): -0.1%
- inhibition at 10 µM (NK3 (h)): -4.5%
- inhibition at 10 µM (CCK2 (CCKB) (h)): -2.5%
- inhibition at 10 µM (ETB (h)): -1.7%
- % Inhibition (I2): 10.1%
- % Inhibition (KATP channel): −0.8%
- concentration at 30 min ([3]; rat, plasma, 30 min, Mean ± SD, n = 3): 746 ± 104 ng/mL
- concentration at 120 min ([3]; rat, plasma, 120 min, Mean ± SD, n = 3): 522 ± 57 ng/mL
- Brain/Plasma ([3]; 30 min): 0.19 ± 0.02
- Prostate/Plasma ([3]; 30 min): 1.55 ± 0.08
- Brain ([3]; 30 min, Mean ± SD, n = 3): 145 ± 22 ng/g
- Plasma ([3]; 30 min, Mean ± SD, n = 3): 746 ± 104 ng/mL
- Prostate ([3]; 30 min, Mean ± SD, n = 3): 1159 ± 164 ng/g
- Brain/Plasma ([3]; 120 min): 0.17 ± 0.35
- Prostate/Plasma ([3]; 120 min): 1.20 ± 0.36
- Brain ([3]; 120 min, Mean ± SD, n = 3): 89 ± 10 ng/g
- Plasma ([3]; 120 min, Mean ± SD, n = 3): 522 ± 57 ng/mL
- Prostate ([3]; 120 min, Mean ± SD, n = 3): 625 ± 108 ng/g
- inhibition at 10 µM (EP2 (h)): 0%
- inhibition at 10 µM (PPARγ (h)): -19.2%
- % Inhibition (PCP): 0.5%
- % Inhibition (a2 (non-selective)): −3.7%
- % Inhibition (P2Y): 33.3%
- % Inhibition (P2X): 28.0%
- % Inhibition (AR (h)): 96.3%
- % Inhibition (kainate): 13.1%
- inhibition at 10 µM (H2 (h)): -2.6%
- inhibition at 10 µM [4]: 9.7%
- inhibition at 10 µM (BLT1 (LTB4) (h)): 15.9%
- % Inhibition (α1 (non-selective)): 0.7%
- % Inhibition (BZD (central)): −16.6%
- inhibition at 10 µM (B2 (h)): -5.2%

Reference: US9073874B2, “Cyclic N,N′-diarylthioureas and N,N′-diarylureas-androgen receptor antagonists, anticancer agent, method for preparation and use thereof” (priority 2010, dated 2015)
